Measured values from patent US6339077B1, “Substituted 4-benzylaminoquinolines and their hetero analogs, process for their preparation, pharmaceuticals containing these compounds and use thereof” (Aventis Pharma Deutschland GmbH, priority 1999, dated 2002).
Counter-ions that a name gives are not always drawn.

What was measured:
[1] = biological target: T1, human NHE-3 protein (expressed in the LAP1 cell line) (Homo sapiens, UniProt P48764); assay: Inhibition of sodium/proton exchanger subtype 3: recovery of intracellular pH after acidification (BCECF fluorescence); type: cell-based; settings: pHi recovery as percentage of the maximum recovery, read-out: remaining activity of hNHE3
T1 construct: expressed in transfected cells; host or cells: LAP1 cell line
T1 sequence (P48764 26-834): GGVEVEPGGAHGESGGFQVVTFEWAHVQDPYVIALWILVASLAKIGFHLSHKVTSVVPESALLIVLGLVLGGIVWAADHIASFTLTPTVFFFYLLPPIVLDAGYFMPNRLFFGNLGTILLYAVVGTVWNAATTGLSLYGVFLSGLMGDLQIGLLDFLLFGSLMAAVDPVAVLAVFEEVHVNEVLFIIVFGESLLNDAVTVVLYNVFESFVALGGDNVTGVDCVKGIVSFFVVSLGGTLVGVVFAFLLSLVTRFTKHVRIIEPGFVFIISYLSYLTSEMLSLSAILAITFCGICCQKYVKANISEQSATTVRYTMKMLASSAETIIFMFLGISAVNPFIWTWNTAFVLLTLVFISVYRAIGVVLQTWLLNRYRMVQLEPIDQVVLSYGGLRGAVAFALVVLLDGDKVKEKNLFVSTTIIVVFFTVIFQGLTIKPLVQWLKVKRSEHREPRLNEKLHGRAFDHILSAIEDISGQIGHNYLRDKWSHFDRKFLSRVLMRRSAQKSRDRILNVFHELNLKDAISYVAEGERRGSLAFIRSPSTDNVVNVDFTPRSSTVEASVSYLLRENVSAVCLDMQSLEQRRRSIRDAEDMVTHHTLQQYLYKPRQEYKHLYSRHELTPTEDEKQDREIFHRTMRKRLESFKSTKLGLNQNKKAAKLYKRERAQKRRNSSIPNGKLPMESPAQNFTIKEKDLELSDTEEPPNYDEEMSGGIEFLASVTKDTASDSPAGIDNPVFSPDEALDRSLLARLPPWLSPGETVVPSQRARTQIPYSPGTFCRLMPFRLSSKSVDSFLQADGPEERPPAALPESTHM
Procedure: Biological testing of the novel compounds was accomplished by measuring inhibition of the sodium/proton exchanger subtype 3.
The remaining activity of the human NHE-3 protein (expressed in the LAP1 cell line) was determined by measuring the recovery in the intracellular pH (pHi) after an acidification, which starts when the NHE is capable of functioning, even under bicarbonate-free conditions. For this purpose, the pHi was determined using the pH-sensitive fluorescent dye BCECF (Calbiochem, the precursor BCECF-AM is employed). The cells were initially loaded with BCECF. […] The intracellular acidification was induced by addition of 975 μl of an NH4Cl-free buffer (see below) to 25 μl aliquots of the cells incubated in NH4Cl buffer. The subsequent rate of pH recovery was recorded for 3 minutes. To calculate the inhibitory power of the substances tested, the cells were initially investigated in buffers in which complete or absolutely no pH recovery took place. […] Test solutions of the substances of interest were made up in the Na^+-containing buffer. Recovery of the intracellular pH at the tested concentration of a substance was expressed as a percentage of the maximum recovery.

| SMILES | melting point | remaining activity at 30 µM [1] |
| --- | --- | --- |
| COC(=O)c1c(C)nc2cccc(C)c2c1NCc1ccc(CCC2(O)CCC3(C)C(CC(O)C4C3CC(O)C3(C)C4CC[C@@H]3C(C)CCC(=O)O)C2)cc1 (some centres unmarked) | > 180 °C (dec.) |  |
| CC(=O)c1c(C)nc2ccccc2c1NCc1ccc(C(=O)NCCO[C@H]2CC[C@@]3(C)C(C2)C[C@@H](O)C2C3C[C@H](O)[C@@]3(C)C2CC[C@@H]3[C@H](C)CCC(=O)O)cc1 (stereo partly drawn) [Example 20, 4-[3β-(2-{4-[(3-Acetyl-2-methylquinolin-4-ylamino)methyl]benzoylamino)-ethoxy)-7α,12α-dihydroxy-10β,13β-dimethylhexadecahydrocyclopenta[a]phenanthren-17β-yl]pentanoic acid] | > 145 °C (dec.) | 56% |
| COC(=O)c1c(C)nc2cccc(C)c2c1NCc1ccc(C#CC2(O)CCC3(C)C(CC(O)C4C3CC(O)C3(C)C4CC[C@@H]3C(C)CCC(=O)O)C2)cc1 (stereo partly drawn) [Example 11, Methyl 2,5-dimethyl-4-{4-[1-(3α,7α,12α-trihydroxy-10β,13β-dimethyl-17β-(3-carboxy-1-methylpropyl)hexadecahydrocyclopenta[a]phenanthren-3-yl)ethyn-2-yl]benzylamino}quinoline-3-carboxylate] | > 155 °C | 61% |
| COC(=O)c1c(C)nc2ccc(C#CC3(O)CCC4(C)C(CC(O)C5C4CC(O)C4(C)C5CC[C@@H]4C(C)CCC(=O)O)C3)cc2c1NCc1ccccc1 (some centres unmarked) | 223 °C (dec.) |  |
| CC(=O)c1c(C)nc2ccccc2c1NCc1cccc(C#CC2(O)CC[C@@]3(C)C(CC(O)C4C3CC(O)[C@@]3(C)C4CC[C@@H]3[C@H](C)CCC(=O)O)C2)c1 (stereo partly drawn) [Example 13, 2-Methyl-3-acetyl-4-{3-[1-(3α,7α,12α-trihydroxy-10β,13β-dimethyl-17β-(3-carboxy-1-methylpropyl)hexadecahydrocyclopenta[a]phenanthren-3-yl)ethyn-2-yl]benzylamino}quinoline] | > 195 °C (dec.) | 40% |
| CCc1nc2ccccc2c(NCc2ccc(CCC3(O)CCC4(C)C(CC(O)C5C4CC(O)C4(C)C5CC[C@@H]4C(C)CCC(=O)O)C3)cc2)c1C(=O)OC (some centres unmarked) | > 190 °C (dec.) |  |
| Cc1nc2ccccc2c(NCc2ccccc2)c1C(=O)NCCOC1CCC2(C)C(C1)CC(O)C1C2CC(O)C2(C)C1CC[C@@H]2C(C)CCC(=O)O (some centres unmarked) | 143 °C |  |
| Cc1nc2ccccc2c(NCc2ccccc2)c1C(=O)NCCOC1CCC2(C)C(C1)CC(O)C1C2CC(O)C2(C)C1CC[C@@H]2C(C)CCC(=O)NCCS(=O)(=O)O (some centres unmarked) (as salt: trifluoroacetate) | 180 °C |  |
| CC(=O)c1c(C)nc2ccccc2c1NCc1cccc(CCC2(O)CC[C@@]3(C)C(CC(O)C4C3CC(O)[C@@]3(C)C4CC[C@@H]3[C@H](C)CCC(=O)O)C2)c1 (stereo partly drawn) [Example 14, 2-Methyl-3-acetyl-4-{3-[1-(3α,7α,12α-trihydroxy-10β,13β-dimethyl-17β-(3-carboxy-1-methylpropyl)hexadecahydrocyclopenta[a]phenanthren-3-yl)eth-2-yl]benzylamino}quinoline] | > 170 °C (dec.) | 52% |
| COC(=O)c1c(C)nc2ccc(CCC3(O)CCC4(C)C(CC(O)C5C4CC(O)C4(C)C5CC[C@@H]4C(C)CCC(=O)O)C3)cc2c1NCc1ccccc1 (some centres unmarked) | > 185 °C (dec.) |  |
